Results published in paper PMC5355060, “Preclinical pharmacodynamic evaluation of drug candidate SKLB-178 in the treatment of non-small cell lung cancer” (Oncotarget, 2017).

Tests used:
Format in all cases: biochemical
Src = Src (Homo sapiens, UniProt P12931); assay: […] radiolabeled kinase assay (Millipore KinaseProfiler)
EGFR L858R = EGFR L858R (Homo sapiens, UniProt P00533, L858R); assay: as above
EGFR L858R/T790M = EGFR L858R/T790M (Homo sapiens, UniProt P00533, T790M/L858R); assay: as above
Chain of EGFR L858R/T790M (P00533 669-1210 T790M/L858R limits assumed): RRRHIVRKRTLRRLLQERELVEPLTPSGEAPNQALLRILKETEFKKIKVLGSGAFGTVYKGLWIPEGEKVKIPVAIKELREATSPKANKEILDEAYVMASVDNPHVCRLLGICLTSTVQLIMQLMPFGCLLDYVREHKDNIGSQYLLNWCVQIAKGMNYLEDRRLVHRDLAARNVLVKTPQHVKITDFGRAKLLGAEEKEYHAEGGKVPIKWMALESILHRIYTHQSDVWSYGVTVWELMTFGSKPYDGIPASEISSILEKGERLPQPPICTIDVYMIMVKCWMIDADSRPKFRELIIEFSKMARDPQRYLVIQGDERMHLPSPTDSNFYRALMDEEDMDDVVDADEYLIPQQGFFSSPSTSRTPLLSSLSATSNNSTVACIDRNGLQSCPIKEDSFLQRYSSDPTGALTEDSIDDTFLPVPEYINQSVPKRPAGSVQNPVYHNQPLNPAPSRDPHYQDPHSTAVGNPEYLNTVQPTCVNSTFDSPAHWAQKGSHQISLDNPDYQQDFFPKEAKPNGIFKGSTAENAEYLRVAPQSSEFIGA

EGFR = EGFR (Homo sapiens, UniProt P00533); assay: as above
PDGFRα = target: T1, PDGFRα (Homo sapiens, UniProt P16234); assay: […] radiolabeled kinase assay, single dose […]
T1 construct: gene PDGFRA

ErbB4 = ErbB4 (Homo sapiens, UniProt Q15303); assay: […] radiolabeled kinase assay, single dose […]
Chain of ErbB4 (Q15303 26-1308): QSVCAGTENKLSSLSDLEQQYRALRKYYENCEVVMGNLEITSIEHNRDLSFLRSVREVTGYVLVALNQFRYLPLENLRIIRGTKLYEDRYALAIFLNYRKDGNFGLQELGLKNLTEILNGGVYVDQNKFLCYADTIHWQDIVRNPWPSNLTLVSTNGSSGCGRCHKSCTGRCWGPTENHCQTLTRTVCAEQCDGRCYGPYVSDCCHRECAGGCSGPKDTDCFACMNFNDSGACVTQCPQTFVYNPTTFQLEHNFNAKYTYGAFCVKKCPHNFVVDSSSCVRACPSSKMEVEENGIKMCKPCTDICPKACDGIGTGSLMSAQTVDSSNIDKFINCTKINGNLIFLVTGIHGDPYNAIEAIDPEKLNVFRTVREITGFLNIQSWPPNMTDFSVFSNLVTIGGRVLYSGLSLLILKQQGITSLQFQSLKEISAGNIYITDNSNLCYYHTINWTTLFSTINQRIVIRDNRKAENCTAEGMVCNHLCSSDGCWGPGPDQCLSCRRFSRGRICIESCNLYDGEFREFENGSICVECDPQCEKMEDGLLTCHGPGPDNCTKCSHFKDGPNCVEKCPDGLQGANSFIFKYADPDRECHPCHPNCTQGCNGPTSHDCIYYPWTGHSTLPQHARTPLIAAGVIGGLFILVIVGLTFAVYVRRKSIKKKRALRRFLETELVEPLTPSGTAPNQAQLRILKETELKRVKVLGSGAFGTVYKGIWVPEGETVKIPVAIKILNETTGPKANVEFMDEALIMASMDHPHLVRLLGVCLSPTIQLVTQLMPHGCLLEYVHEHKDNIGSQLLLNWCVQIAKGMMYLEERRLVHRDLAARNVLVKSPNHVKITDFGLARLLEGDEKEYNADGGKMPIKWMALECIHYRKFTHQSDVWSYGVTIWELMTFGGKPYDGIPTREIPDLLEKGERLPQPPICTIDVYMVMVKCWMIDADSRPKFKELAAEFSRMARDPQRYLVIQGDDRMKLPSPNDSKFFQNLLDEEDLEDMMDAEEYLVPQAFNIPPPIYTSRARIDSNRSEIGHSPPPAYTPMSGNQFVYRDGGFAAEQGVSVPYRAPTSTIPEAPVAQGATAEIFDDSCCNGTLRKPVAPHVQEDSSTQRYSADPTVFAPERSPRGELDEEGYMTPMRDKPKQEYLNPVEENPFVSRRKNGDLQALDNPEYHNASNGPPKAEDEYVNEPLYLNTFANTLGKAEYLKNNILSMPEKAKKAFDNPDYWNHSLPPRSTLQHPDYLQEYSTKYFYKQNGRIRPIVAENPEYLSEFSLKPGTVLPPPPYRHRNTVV

MET = MET (Homo sapiens, UniProt P08581); assay: […] radiolabeled kinase assay, single dose […]
Chain of MET (P08581 25-307): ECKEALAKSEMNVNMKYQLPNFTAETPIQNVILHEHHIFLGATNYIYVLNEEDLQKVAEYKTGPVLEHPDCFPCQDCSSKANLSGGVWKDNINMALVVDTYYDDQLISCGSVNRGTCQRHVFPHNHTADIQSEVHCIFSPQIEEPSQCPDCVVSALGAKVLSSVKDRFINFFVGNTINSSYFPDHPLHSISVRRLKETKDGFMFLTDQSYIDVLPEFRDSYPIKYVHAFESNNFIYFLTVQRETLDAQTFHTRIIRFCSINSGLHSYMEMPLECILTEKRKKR
Chain of MET (P08581 308-1390): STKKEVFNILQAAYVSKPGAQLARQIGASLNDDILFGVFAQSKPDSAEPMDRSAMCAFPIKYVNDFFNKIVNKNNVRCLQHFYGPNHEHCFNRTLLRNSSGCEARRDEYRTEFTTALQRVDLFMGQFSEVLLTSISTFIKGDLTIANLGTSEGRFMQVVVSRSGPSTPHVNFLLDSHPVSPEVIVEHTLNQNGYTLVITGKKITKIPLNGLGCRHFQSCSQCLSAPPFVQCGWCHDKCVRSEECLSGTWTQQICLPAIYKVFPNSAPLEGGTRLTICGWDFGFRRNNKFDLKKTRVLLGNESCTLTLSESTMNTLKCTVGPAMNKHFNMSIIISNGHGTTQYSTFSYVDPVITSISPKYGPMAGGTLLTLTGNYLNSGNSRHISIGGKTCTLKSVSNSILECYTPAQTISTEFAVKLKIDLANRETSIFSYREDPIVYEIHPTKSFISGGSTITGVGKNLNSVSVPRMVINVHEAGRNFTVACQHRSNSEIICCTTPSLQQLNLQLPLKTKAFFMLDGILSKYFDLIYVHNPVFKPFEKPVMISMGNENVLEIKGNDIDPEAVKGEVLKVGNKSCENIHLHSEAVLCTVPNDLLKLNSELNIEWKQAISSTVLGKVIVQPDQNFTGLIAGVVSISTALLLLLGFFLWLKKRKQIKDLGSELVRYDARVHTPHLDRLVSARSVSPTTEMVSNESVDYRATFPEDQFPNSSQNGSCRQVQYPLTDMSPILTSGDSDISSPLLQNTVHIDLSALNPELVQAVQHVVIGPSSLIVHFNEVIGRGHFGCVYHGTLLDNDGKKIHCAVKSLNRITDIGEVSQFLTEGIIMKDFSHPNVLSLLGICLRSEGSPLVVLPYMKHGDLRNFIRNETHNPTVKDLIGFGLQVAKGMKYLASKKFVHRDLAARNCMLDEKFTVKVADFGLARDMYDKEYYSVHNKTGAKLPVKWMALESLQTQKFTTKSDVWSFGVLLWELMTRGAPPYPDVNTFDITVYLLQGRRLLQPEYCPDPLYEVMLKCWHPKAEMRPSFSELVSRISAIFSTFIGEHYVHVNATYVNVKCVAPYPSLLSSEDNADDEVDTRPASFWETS

KDR (VEGFR2) = KDR (VEGFR2) (Homo sapiens, UniProt P35968); assay: […] radiolabeled kinase assay (Millipore KinaseProfiler)
Chain of KDR (VEGFR2) (P35968 20-1356): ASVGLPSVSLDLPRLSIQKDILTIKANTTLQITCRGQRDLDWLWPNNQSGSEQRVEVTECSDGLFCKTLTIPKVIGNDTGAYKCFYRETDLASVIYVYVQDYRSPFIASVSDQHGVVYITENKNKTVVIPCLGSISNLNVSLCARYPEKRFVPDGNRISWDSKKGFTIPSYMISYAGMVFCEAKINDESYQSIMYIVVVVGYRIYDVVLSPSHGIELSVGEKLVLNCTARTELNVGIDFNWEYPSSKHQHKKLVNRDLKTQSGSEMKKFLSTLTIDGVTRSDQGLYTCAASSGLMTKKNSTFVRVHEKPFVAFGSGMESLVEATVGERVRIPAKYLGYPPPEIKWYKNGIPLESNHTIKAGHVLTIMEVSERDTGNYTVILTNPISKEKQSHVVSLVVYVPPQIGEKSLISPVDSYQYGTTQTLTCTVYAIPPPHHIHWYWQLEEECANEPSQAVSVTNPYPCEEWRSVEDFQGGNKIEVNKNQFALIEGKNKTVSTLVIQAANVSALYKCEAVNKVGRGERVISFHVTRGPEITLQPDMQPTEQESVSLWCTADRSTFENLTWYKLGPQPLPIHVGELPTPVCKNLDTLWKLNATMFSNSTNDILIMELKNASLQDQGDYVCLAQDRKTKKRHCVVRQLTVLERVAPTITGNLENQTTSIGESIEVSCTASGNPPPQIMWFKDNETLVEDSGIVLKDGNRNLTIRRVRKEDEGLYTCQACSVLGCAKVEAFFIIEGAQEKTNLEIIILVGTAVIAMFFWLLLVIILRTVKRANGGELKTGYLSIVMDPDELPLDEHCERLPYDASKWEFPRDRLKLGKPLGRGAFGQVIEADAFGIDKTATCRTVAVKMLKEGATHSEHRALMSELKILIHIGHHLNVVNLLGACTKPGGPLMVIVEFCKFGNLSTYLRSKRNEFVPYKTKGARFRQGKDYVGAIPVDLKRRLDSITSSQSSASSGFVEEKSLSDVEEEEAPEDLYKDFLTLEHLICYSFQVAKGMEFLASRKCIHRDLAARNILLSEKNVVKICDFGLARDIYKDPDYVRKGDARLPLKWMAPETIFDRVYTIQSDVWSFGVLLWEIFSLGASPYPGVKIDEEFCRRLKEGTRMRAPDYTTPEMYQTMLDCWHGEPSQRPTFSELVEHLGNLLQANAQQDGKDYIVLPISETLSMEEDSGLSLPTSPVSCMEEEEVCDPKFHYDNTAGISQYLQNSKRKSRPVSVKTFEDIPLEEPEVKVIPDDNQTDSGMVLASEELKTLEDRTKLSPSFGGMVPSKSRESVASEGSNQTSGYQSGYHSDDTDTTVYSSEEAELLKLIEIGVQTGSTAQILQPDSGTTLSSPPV

Chain of Src (P12931 2-536): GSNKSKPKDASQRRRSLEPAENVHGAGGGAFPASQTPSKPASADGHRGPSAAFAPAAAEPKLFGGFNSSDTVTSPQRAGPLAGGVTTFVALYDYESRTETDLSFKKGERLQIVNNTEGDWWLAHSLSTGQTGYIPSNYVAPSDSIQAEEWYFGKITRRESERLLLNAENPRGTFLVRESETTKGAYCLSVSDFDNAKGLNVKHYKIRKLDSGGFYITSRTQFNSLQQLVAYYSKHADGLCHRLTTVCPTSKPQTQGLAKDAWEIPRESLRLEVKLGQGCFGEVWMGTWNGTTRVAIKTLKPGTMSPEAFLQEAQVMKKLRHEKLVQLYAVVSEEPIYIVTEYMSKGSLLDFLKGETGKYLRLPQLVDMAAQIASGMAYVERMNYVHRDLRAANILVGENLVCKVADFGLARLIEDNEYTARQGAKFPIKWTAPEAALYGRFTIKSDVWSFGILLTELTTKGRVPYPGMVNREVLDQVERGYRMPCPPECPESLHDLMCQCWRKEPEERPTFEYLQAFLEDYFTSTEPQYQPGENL

CN1CCN(c2ccc(Nc3ncc4nc(Nc5ccc(Br)cc5)n(C5CCCC5)c4n3)cc2)CC1 [SKLB-178]
33P radiolabeled kinase assay (Millipore KinaseProfiler) (Src): completely inhibited at 10 μM or 1 μM
33P radiolabeled kinase assay (Millipore KinaseProfiler) (EGFR L858R): completely inhibited at 10 μM or 1 μM
33P radiolabeled kinase assay (Millipore KinaseProfiler) (EGFR L858R/T790M): completely inhibited at 10 μM or 1 μM
33P radiolabeled kinase assay (Millipore KinaseProfiler) (EGFR): completely inhibited at 10 μM or 1 μM
inhibition at 1 µM (PDGFRα): 58%
inhibition at 1 µM (ErbB4): 100%
inhibition at 10 µM (MET): 88%
33P radiolabeled kinase assay (Millipore KinaseProfiler) (KDR (VEGFR2)): completely inhibited at 10 μM or 1 μM
